Each structure is given as a SMILES string. Counter-ions that a name gives are not always drawn. Like-named read-outs stand apart in the source and are kept apart here.

Holding throughout (assay type): cell-based
One assay has as its target T1, 5-HT1A (Homo sapiens, UniProt P08908).
T1 sequence (P08908 1-422): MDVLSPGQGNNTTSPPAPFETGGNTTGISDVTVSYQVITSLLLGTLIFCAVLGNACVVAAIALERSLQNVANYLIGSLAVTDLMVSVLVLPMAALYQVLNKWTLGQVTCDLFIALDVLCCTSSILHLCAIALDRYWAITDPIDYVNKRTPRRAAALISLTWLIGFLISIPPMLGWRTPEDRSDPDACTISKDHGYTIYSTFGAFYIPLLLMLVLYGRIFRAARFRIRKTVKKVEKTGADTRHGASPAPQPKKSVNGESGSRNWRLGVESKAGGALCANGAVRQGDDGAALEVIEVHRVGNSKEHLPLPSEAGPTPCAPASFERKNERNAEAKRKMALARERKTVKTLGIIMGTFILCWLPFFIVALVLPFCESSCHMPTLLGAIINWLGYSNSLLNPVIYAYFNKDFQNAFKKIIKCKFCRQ
Put plainly: Calcium mobilization assay (Gq signaling), 5-HT1A. Here is the method:
(§1) The Calcium No-Wash^PLUS assay monitors the activation of a GPCR via Gq secondary messenger signaling in a live cell, non-imaging assay format. Calcium mobilization in PathHunter® cell lineSOR other cell lines stably expressing Gq-Coupled GPCR5 is monitored using a calcium-sensitive dye that is loaded into cells. GPCR activation by a compound results in the release of calcium from intracellular stores and an increase in dye fluorescence that is measured in real-time.
(§2) Cell lines expressing the GPCR of interest were expanded from freezer stocks according to standard procedures. […] Compound agonist activity was measured on a FLIPR Tetra (MDS). Calcium mobilization was monitored for 2 minutes and 10 μL 4× sample in HB SS/20 mM Hepes was added to the cells 5 seconds into the assay. Compound activity data was analyzed using CBIS data analysis suite (ChemInnovation, California). For agonist mode assays, percentage activity is calculated using the following formula: % Activity=100%×(mean RFU of test sample−mean RFU of vehicle control)/(mean MAX RFU control ligand−mean RFU of vehicle control). […]
(§3) Compounds 1-1·HCl, 1-2 and 2-1 were assessed for biological activity across a panel of 5-HT receptors including 5-HT2A, 5-HT2B, 5-HT2C and 5-HT1A. Biased signaling was assessed by monitoring both intracellular Gq-mediated calcium release, as well as beta-arrestin activation and recruitment to the GPCR.
(In general: Calcium flux is commonly read through the fluorescence of an indicator in the cells.)

Assay [1] addresses T2, 5HT2A (Homo sapiens, UniProt P28223). Description: Calcium mobilization assay (Gq signaling), 5-HT2A. The following applies: for type of agonism of 5-HT2A mediated signaling: EC50 profiles, FIG. 1; for Emax: read-out: maximum effect level, Gq signaling. Here is the method:
as §1
(§4) Cell lines expressing the GPCR of interest were expanded from freezer stocks according to standard procedures. Cells were seeded in a total volume of 20 μL into black-walled, clear-bottom, Poly-D-lysine coated 384-well microplates and incubated at 37° C. for the appropriate time prior to testing. Assays were performed in 1× Dye Loading Buffer consisting of 1× Dye, 1× Additive A and 2.5 mM Probenecid in HB SS/20 mM Hepes. Probenicid was prepared fresh. Cells were loaded with dye prior to testing. Media was aspirated from cells and replaced with 20 μL Dye Loading Buffer. Cells were incubated for 30-60 minutes at 37° C. For agonist determination, cells were incubated with sample to induce response. After dye loading, cells were removed from the incubator and 10 μL HBSS/20 mM Hepes was added. 3× vehicle was included in the buffer when performing agonist dose curves to define the EC80 for subsequent antagonist assays. Cells were incubated for 30 minutes at room temperature in the dark to equilibrate plate temperature. Intermediate dilution of sample stocks was performed to generate 4× sample in assay buffer. Compound agonist activity was measured on a FLIPR Tetra (MDS). Calcium mobilization was monitored for 2 minutes and 10 μL 4× sample in HB SS/20 mM Hepes was added to the cells 5 seconds into the assay. Compound activity data was analyzed using CBIS data analysis suite (ChemInnovation, California). For agonist mode assays, percentage activity is calculated using the following formula: % Activity=100%×(mean RFU of test sample−mean RFU of vehicle control)/(mean MAX RFU control ligand−mean RFU of vehicle control). In these studies, the MAX RFU was generated by using 0.1 μM serotonin for the calcium mobilization assay.
as §3

Another assay has as its target 5-HT2B (Homo sapiens, UniProt P41595). Description: Calcium mobilization assay (Gq signaling), 5-HT2B. Here is the method: as §1
as §4, with “3× vehicle was included in the buffer when performing agonist dose curves to define the EC80 for subsequent antagonist assays. Cells were incubated for 30 minutes at room temperature in the dark to equilibrate plate temperature. Intermediate dilution of sample stocks was performed to generate 4× sample in assay buffer.” left out, “In these studies, the MAX RFU was generated by using 0.1 μM serotonin for the calcium mobilization assay.” left out
as §3

For a further assay, the target named is T3, 5-HT2C (Homo sapiens, UniProt P28335).
T3 sequence (P28335 33-458): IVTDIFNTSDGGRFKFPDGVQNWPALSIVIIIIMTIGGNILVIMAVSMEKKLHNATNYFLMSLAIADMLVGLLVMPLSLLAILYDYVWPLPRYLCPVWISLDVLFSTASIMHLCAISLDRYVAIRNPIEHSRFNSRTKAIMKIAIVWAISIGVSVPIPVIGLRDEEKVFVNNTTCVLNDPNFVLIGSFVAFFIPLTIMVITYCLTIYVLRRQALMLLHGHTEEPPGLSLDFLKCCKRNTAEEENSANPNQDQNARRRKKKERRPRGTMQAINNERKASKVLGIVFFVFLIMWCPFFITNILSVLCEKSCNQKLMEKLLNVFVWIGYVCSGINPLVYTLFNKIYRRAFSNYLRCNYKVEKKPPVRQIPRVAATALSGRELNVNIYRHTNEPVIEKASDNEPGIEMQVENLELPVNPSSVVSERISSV
Description: Calcium mobilization assay (Gq signaling), 5-HT2C. How it is done:
as §1, §2, §3

Assay [2] has as its target T2, 5HT2A. Put plainly: PathHunter β-Arrestin assay, 5-HT2A. Here is the method: PathHunter cell lines (DiscoveRx Eurofins) were expanded from freezer stocks according to standard procedures. Cells were seeded in a total volume of 20 μL into white walled, 384-well microplates and incubated at 37° C. for the appropriate time prior to testing. For agonist determination, cells were incubated with sample to induce response. Intermediate dilution of sample stocks was performed to generate 5× sample in assay buffer. 5 μL of 5× sample was added to cells and incubated at 37° C. or room temperature for 90 to 180 minutes. […] Microplates were read following signal generation with a PerkinElmer Envision™ instrument for chemiluminescent signal detection. Compound activity was analyzed using CBIS data analysis suite (ChemInnovation, California). For agonist mode assays, percentage activity was calculated using the following formula: % Activity=100%×(mean RLU of test sample−mean RLU of vehicle control)/(mean MAX control ligand−mean RLU of vehicle control). […]
as §3

The target of assay [3] is T2, 5HT2A. Put plainly: 5HT2A Activity (% Max Activation @ 0.3 uM).

Sequence of 5-HT2B (P41595 whole entry): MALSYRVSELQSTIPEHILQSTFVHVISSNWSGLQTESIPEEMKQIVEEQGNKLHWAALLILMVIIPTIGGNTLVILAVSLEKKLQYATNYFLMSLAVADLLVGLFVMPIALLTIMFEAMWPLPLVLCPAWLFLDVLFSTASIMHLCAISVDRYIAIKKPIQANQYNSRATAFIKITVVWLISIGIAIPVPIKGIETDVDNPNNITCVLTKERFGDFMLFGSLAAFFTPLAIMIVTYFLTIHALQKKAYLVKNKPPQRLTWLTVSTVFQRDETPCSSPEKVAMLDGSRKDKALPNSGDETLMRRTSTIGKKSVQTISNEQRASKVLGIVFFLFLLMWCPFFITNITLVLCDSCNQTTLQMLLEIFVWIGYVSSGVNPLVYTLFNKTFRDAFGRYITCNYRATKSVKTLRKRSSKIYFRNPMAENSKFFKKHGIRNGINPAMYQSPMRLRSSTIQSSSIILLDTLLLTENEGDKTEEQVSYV
T2 sequence (P28223 whole entry): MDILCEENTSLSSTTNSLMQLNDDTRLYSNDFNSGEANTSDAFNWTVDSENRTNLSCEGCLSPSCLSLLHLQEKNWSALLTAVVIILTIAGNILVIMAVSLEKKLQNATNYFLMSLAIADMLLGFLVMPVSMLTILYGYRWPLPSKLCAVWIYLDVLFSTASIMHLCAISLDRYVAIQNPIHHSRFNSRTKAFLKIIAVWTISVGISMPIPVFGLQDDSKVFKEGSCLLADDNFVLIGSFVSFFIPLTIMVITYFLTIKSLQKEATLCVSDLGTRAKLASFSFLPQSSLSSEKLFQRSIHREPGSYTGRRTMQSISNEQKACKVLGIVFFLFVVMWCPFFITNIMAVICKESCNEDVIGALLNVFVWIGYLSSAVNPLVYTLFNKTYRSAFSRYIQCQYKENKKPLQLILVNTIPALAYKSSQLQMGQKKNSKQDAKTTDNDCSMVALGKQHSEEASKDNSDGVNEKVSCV

`COc1ccc(OC)c(CCNCc2cc(C)cc(Cl)c2)c1` [Compound 2-1, N-(3-chloro-5-methylbenzyl)-2-(2,5-dimethoxyphenyl)ethan-1-amine]: the EC50 was found to be 24.7 µM on 5-HT1A; 0.01 µM on 5HT2A [1]; 44.1 µM at 5-HT2B; 0.091 µM on 5-HT2C; 0.023 µM at 5HT2A [2]. Further, the “selectivity for 5-HT2A over 5-HT2B” value on 5HT2A [1] (5-HT2A compared to 5-HT2B) was about 4400 fold. Also, the “type of agonism of 5-HT2A mediated signaling” value on 5HT2A [1] is recorded as “partial-agonist”. Moreover, on 5HT2A [1], the Emax is about 86%. Further, on 5-HT2B (concentrations less than 10 uM), the “activity at 5-HT2B” value is recorded as “no appreciable activity”. At 5HT2A [3], this compound gave an Emax at 0.3 µM of 98%.
With `COc1ccc(OC)c(CCNCc2cc(C)cc(C#N)c2)c1` [Compound 2-36, 3-(((2,5-dimethoxyphenethyl)amino)methyl)-5-methylbenzonitrile], at 5HT2A [3], the Emax at 0.3 µM was 16%.
Turning to `COc1ccc(OC)c2c1CCC(NCc1cc(C)cc(Cl)c1)C2` (stereo not shown) [1-1·HCl, N-(3-chloro-5-methylbenzyl)-5,8-dimethoxy-1,2,3,4-tetrahydronaphthalen-2-amine hydrochloride], the EC50 on 5-HT1A (Gq signaling, read-out: EC50, 5-HT1A (Gq signaling)) turned out to be 17.2 µM; on 5HT2A [1], 0.134 µM; at 5-HT2B (Gq signaling, read-out: EC50, 5-HT2B (Gq signaling)) it was 23.2 µM; on 5-HT2C (Gq signaling, read-out: EC50, 5-HT2C (Gq signaling)) it was 10 µM; at 5HT2A [2], 0.172 µM. Moreover, the “type of agonism of 5-HT2A mediated signaling” value on 5HT2A [1] is “full-agonism”. For the same compound, the Emax on 5HT2A [1] is about 100%.
In the case of `COc1ccc(OC)c([C@@H](O)CNCc2cc(C)cc(F)c2)c1` [Compound 2-41, (R)-1-(2,5-dimethoxyphenyl)-2-((3-fluoro-5-methylbenzyl)amino)ethan-1-ol hydrochloride], the Emax at 0.3 µM on 5HT2A [3] is 74%.

In general, EC50 refers to the midpoint of the concentration-response curve.

The values are drawn from patent publication US11926574B2, “Dimethoxyphenylalkylamine activators of serotonin receptors” (Entheogenix Biosciences, Inc., priority 2021, dated 2024).
